Data set [1] can be described thus: in vitro. The note with it: human, hela cells.
The target of data set [2] is T1, PfClpQ (Plasmodium falciparum, UniProt Q8I5B6).
T1 sequence (Q8I5B6 38-207): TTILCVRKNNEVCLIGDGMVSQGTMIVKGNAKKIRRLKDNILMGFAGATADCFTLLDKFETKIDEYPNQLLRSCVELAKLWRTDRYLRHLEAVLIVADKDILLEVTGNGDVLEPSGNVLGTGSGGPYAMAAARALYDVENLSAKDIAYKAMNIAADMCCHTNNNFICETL
The data set is described as follows: fluorogenic peptide. The class given is biochemical.

By CC50 is commonly meant the concentration that lowers cell viability or growth by half. Higher therefore signals better tolerance by the cells. Usually Ki stands for the equilibrium dissociation constant of an inhibitor or competing ligand from its target. A high value points to a looser hold on the target.

Consider `CCn1nc(/C=C/c2ccccc2)[n+]([O-])c2c(=O)n(C)c(=O)nc1-2` [ICGEB-L3, 1-ethyl-6-methyl-5,7-dioxo-3-[(1E)-2-phenylethenyl]-1H,5H,6H,7H-pyrimido[5,4-e][1,2,4]triazin-4-ium-4-olate], for which the CC50 in data set [1] amounted to 10 µM.
Compound `Cn1nc(-c2ccncc2)nc2c(=O)n(C)c(=O)nc1-2` [ICGEB-L1, 1,6-dimethyl-3-(pyridin-4-yl)-1H,5H,6H,7H-pyrimido[5,4-e][1,2,4]triazine-5,7-dione] gave a CC50 in data set [1] of 8.4 µM.
In the case of `CCn1nc(-c2ccc(Cl)cc2)nc2c(=O)n(C)c(=O)nc1-2` [ICGEB-L2, 3-(4-chlorophenyl)-1-ethyl-6-methyl-1H,5H,6H,7H-pyrimido [5,4-e] [1,2,4] triazine-5,7-dione], half-maximal cytotoxicity in data set [1] (CC50) was put at 9.93 µM.
As to `CCn1nc(-c2ccc(C(=O)OC)cc2)nc2c(=O)n(C)c(=O)nc1-2` [CN172, methyl 4-{1-ethyl-6-methyl-5,7-dioxopyrimido[5,4-e][1,2,4]triazin-3-yl}benzoate], the affinity in data set [2] corresponds to a Ki of 0.44 µM. Besides, the CC50 in data set [1] is 9.58 µM.

The values are drawn from doi:10.1101/2022.05.12.491652v1 (biorxiv, 2022).
